# Laboratory results: patent US11572350B1, “Benzothia(di)azepine compounds and their use as bile acid modulators” (Albireo AB, priority 2020, dated 2023)
# Legend:
# human IBAT = target: T1, human IBAT (Homo sapiens, UniProt Q12908); test: IBAT (h/m) assay: 3H-taurocholic acid uptake in human IBAT-overexpressing cells; type: cell-based; conditions: 0.25 μM 3H-taurocholic acid and 5 μM cold taurocholic acid, 20 minutes, highest test concentration 10 μM, read-out: hIBAT IC50
# T1 construct: expressed in transfected cells; kept under Puromycin selection
# T1 sequence (Q12908 1-348): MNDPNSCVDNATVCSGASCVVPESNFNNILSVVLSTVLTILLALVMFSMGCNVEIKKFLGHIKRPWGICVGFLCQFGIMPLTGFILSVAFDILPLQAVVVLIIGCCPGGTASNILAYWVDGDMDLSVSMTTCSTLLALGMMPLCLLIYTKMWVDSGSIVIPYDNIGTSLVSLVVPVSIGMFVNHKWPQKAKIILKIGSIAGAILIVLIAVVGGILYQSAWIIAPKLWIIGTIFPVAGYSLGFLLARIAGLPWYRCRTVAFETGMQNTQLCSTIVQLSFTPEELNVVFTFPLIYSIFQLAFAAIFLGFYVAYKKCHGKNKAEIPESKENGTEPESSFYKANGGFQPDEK
# Description: IBAT (h/m) Assay Protocol
# 10,000 cells (Human or Mouse IBAT-overexpressing cells) were seeded in 96-wells plate (Corning CLS3809) in 200 μL MEM-alpha medium (Gibco 12571-063) supplemented with 10% FBS (Gibco 10438026) containing Puromycin (Gibco A1113803) (10 μg/mL) and incubated at 37° C. in 5% CO2 for 48 hours. After incubation, media was decanted from the wells and cells were washed two times with 300 μL of basal MEM-alpha medium (FBS-free). After decanting basal MEM-alpha medium each time, plates were tapped against paper towel to ensure maximum removal of residual media. Test inhibitor dilutions (highest test concentration being 10 μM, 3-fold serial dilution, 10 points) prepared in DMSO (Sigma D2650) were added in incubation mix (maintaining 0.2% final DMSO concentration) containing 0.25 μM 3H-taurocholic acid (ARC ART-1368) and 5 μM of cold taurocholic acid (Sigma T4009). 50 μL of incubation mix containing test inhibitors was then added to the wells (in duplicate) and the plates were incubated for 20 minutes in a CO2 incubator at 37° C. After incubation, the reaction was stopped by keeping the plates on ice water mix for 2-3 minutes and then the incubation mix was aspirated completely from the wells. The wells were washed two times with 250 μL of chilled unlabelled 1 mM taurocholic acid dissolved in HEPES (Gibco 15630080)-buffered (10 mM) HBSS (Gibco 14175079) (pH 7.4). The plates were tapped against a paper towel after every wash to ensure maximum removal of blocking buffer.
# (§1) 100 μL of MicroScint-20 (PerkinElmer 6013621) was added to the wells and kept overnight at room temperature before reading the plates in TopCount NXT™ Microplate Scintillation and Luminescence Counter from PerkinElmer under 3H Test protocol (set at 120 seconds reading time per well).
# (§2) Preparation of Test Compound Dilutions
# (§3) All test compounds were provided in powder form at room temperature. 10 mM DMSO stocks of the test compounds were prepared, aliquoted and stored at −20° C. From the 10 mM DMSO stock of the compounds, a 3-fold serial dilution in DMSO was prepared to get a total of 10 dilutions of the test compounds. 0.5 μL of this dilution in DMSO was added to 250 μL of FBS-free basal media containing 3H-taurocholic acid and cold taurocholic acid to prepare the incubation mixture.
# human LBAT = target: T2, human LBAT (Homo sapiens, UniProt Q14973); test: LBAT (h/m) assay: 3H-taurocholic acid uptake in human LBAT-overexpressing cells; type: cell-based; conditions: 0.3 μM 3H-taurocholic acid and 7.5 μM cold taurocholic acid, 20 minutes, read-out: hLBAT IC50
# T2 construct: expressed in transfected cells; kept under Geneticin selection
# T2 sequence (Q14973 1-349): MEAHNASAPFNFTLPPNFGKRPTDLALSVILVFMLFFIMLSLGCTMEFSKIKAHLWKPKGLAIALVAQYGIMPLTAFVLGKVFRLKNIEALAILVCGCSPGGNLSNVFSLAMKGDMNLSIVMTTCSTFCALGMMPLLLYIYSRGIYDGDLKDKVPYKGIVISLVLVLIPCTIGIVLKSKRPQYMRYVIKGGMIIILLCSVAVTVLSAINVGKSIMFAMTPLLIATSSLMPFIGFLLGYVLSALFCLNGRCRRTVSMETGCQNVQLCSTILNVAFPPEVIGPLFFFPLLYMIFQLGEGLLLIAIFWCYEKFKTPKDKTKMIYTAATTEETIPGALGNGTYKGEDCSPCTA
# Description: LBAT (h/m) Assay Protocol
# 20,000 cells (Human or Mouse LBAT-overexpressing cells) were seeded in 96-wells plate (Corning CLS3809) in 100 μL MEM-alpha medium (Gibco 12571-063) supplemented with 10% FBS (Gibco 10438026) containing Geneticin (Gibco 10131-027) (1 mg/mL) and incubated at 37° C. in 5% CO2 for 24 hours. After incubation, media was decanted from the wells and cells were washed two times with 300 μL of basal MEM-alpha medium (FBS-free). After decanting basal MEM-alpha medium each time, plates were tapped against paper towel to ensure maximum removal of residual media. For human LBAT, incubation mix was prepared by adding test inhibitor dilutions (3-fold serial dilution in DMSO (Sigma D2650), 10 points) in MEM-alpha (without FBS) containing 0.3 μM 3H-taurocholic acid (ARC ART-1368) and 7.5 μM cold taurocholic acid (Sigma T4009) (maintaining 0.2% final DMSO concentration). For mouse LBAT, incubation mix was prepared by adding test inhibitor dilutions (3-fold serial dilution in DMSO, 10 points) in MEM-alpha (without FBS) containing 0.3 μM 3H-taurocholic acid and 25 μM cold taurocholic acid maintaining 0.2% final DMSO concentration). 50 μL of incubation mix containing test inhibitors was then added to the wells (in duplicate) and the plates were incubated for 20 minutes in a CO2 incubator at 37° C. After incubation, the reaction was stopped by keeping the plates on ice water mix for 2-3 minutes and then the incubation mix was aspirated completely from the wells. The wells were washed two times with 250 μL of chilled unlabelled 1 mM taurocholic acid dissolved in HEPES (Gibco 15630080)-buffered (10 mM) HBSS (Gibco 14175079) (pH 7.4). The plates were tapped against a paper towel after every wash to ensure maximum removal of blocking buffer.
# as §1, with “well, with normal plate orientation).” for “well).”
# as §2, §3
# [1] = Bidirectional permeability assay (Caco-2 cells); type: in vitro ADME; conditions: human, FaSSIF donor buffer, 120 minutes at 37° C.; for Papp A→B at 120 min, 10 µM: Caco-2, pH 7.4, absorptive direction (A2B); for Papp B→A at 120 min, 10 µM: Caco-2, pH 7.4, secretory direction (B2A)
# Text: (§4) Bidirectional Permeability Assay (Caco-2 Cells)
# (§5) HepaRG-Based Assay Protocol
# OATP KO mice = test: Effect of LBAT selective compounds on serum bile acid levels in OATP KO mice; type: in vivo; conditions: male OATP KO mice; for Effect on serum bile acid levels: oral dosing at the indicated doses, FIGS. 1 to 4, n=4
# Text: Effect of LBAT Selective Compounds on Serum Bile Acid Levels in OATP KO Mice
# Male OATP KO mice (Oatp1a/1b cluster knockout mice, Taconic, USA) aged 8 to 9 weeks were used in the studies. After completion of quarantine and acclimatization period, animals were randomized based on body weight into experimental groups (n=4 mice in each). On the experimental day, a baseline blood sample was collected followed by oral dosing of vehicle (0.5% CMC, 0.1% Tween 80) or compound of Example 3, 6, 13 or 15 at the indicated doses. Blood samples were then collected at various time points after dose (indicated in each graph). Blood was allowed to clot, and serum was collected by centrifugation at 3000 g, 4° C. for 15 minutes and stored at −80° C. for further analysis. The total bile acid concentration in each serum sample was determined by using the CELL BIOLABS Total Bile Acids kit (STA631) according to manufacturer's instructions. Mean±SEM, n=4.
# Caco-2 cells = test: Bidirectional permeability assay (Caco-2 cells); type: in vitro ADME; conditions: absorptive direction (A2B); FaSSIF donor buffer; 120 minutes at 37° C.
# Text: as §4, §5
IC50 (human IBAT),IC50 (human LBAT),"Papp A→B at 120 min, 10 µM [1]","Papp B→A at 120 min, 10 µM [1]",Permeability (Caco-2) Papp A2B (Caco-2 cells),Compound,Effect on serum bile acid levels (OATP KO mice),"Serum bile acids level (OATP KO mice; 30 mg/kg oral, within one hour after dosing, pre-dose/vehicle 1 to 5 μmol/L)"
2020 nM,1.6 nM,10.5 ×10⁻⁶ cm/s,17.1 ×10⁻⁶ cm/s,,"CCCCC1CN(c2ccc(F)cc2)c2cc(SC)c(O/C=C/C(=O)O)cc2S(=O)(=O)N1 (single isomer, unassigned) [Example 3, (E)-3-((3-butyl-5-(4-fluorophenyl)-7-(methylthio)-1,1-dioxido-2,3,4,5-tetrahydro-1,2,5-benzothiadiazepin-8-yl)oxy)acrylic acid]",increased serum bile acid levels,
> 3330 nM,1.2 nM,,5.3 ×10⁻⁶ cm/s,1.3 ×10⁻⁶ cm/s,"CCCCC1CN(c2ccccc2)c2cc(SCC)c(O/C=C(\F)C(=O)O)cc2S(=O)(=O)C1 (single isomer, unassigned) [Example 15, (Z)-3-((3-butyl-7-(ethylthio)-1,1-dioxido-5-phenyl-2,3,4,5-tetrahydro-1,5-benzothiazepin-8-yl)oxy)-2-fluoroacrylic acid]",increased serum bile acid levels,
4890 nM,2.8 nM,1.8 ×10⁻⁶ cm/s,6.9 ×10⁻⁶ cm/s,,"CCCCC1CN(c2ccccc2)c2cc(SCC)c(O/C=C(\F)C(=O)O)cc2S(=O)(=O)C1 (racemic) [Example 13, (Z)-3-((3-butyl-7-(ethylthio)-1,1-dioxido-5-phenyl-2,3,4,5-tetrahydro-1,5-benzothiazepin-8-yl)oxy)-2-fluoroacrylic acid]",increased serum bile acids in a dose-dependent manner,about 100 μmol/L
